Test results: patent US7605154B2, “Substituted Thiazolo [4,5-d]pyrimidines as protein kinase inhibitors” (Janssen Pharmaceutica N.V., priority 2005, dated 2009)

Biological target: T1, EGFR (Homo sapiens, UniProt P00533)
T1 construct: started at nucleotide 2189 (corresponding to amino acid 667) and ended at the termination codon; made in house; host or cells: Sf9 insect cells (baculovirus)
Experiment: EGFR Kinase Assay
Format: biochemical
Conditions: GST-EGFR, 5 μM ATP
Text: The portion was PCR amplified with primers that added the lambda attB sequences to each end, recombined into an entry vector, then into a, GST destination vector (as described in Gateway Technologies Manual by Invitrogen Corporation, Carlsbad, Calif.).
The destination vector was recombined in the DH10BAC strain of bacteria to produce a bacmid. The bacmid was transfected into Sf 9 cells and the supernatant containing the baculovirus was collected. The GSTEGFR protein was purified using large cultures of Sf 9 cells infected with stock virus. After an appropriate period of time, the cells were collected and lysed. The GSTEGFR was then purified from the lysate on Glutathione-Sepharose columns (as described by Amersham Biosciences, Buckinghamshire, United Kingdom).
The free biotin was separated from the biotinylated polyGluTyr on a gel filtration column.
A mixture of a 10× kinase buffer (500 mM Tris at pH 8.0, 100 mM Magnesium Chloride and 1 mM Sodium Vanadate), DTT (1 mM final from 500 mM stock), ATP (5 μM final from 10 mM stock), biotinylated polyGluTyr (10 μg/μL stock), γ-^33P ATP (10 μCi/μL stock) and water was added to each well (90 μL/well) of a Streptavidin Flashplate (Perkin Elmer, Wellesley, Mass.).
Test compound in 100% DMSO (2 μL) was added to the appropriate wells. Diluted GSTEGFR (1:300 dilution in 50 mM Tris at pH 8.0 and 0.1% bovine serum albumin) (10 μL) was added to the wells to initiate the reactions.
The plates were incubated at 30° C. for 1 hr with shaking. The reacted contents were removed and the plates were sequentially washed three times with a 1×PBS stop buffer (300 μL without Magnesium and Calcium) and 100 mM EDTA. After the final wash, the same stop buffer (200 μL) was added to the wells. The plates were then sealed and read on the TopCount scintillation counter.
Test compounds were assayed in triplicate at 16 concentrations at half-log dilutions starting at 200 uM. A maximum and minimum signal for the assay was determined on each plate. The percent inhibition of a test compound was calculated according to the formula
For a series of test concentrations, the IC50 was derived by graphing percent inhibition against the log of the concentrations tested for a given compound.

T1 sequence (P00533 667-1210 limits assumed): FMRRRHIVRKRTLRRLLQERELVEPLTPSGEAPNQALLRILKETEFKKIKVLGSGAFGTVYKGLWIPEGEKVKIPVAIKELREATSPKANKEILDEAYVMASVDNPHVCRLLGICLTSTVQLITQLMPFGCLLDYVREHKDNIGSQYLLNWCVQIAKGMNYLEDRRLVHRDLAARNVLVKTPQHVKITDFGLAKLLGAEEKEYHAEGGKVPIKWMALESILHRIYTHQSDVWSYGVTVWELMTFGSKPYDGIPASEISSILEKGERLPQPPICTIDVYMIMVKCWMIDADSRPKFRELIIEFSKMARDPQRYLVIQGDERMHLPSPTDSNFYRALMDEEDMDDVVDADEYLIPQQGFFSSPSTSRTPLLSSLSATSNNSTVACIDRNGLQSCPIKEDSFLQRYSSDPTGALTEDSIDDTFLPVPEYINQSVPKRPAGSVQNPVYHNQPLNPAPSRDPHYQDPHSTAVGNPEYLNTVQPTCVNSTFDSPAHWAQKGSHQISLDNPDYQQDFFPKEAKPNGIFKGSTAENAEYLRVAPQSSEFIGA

| Structure (SMILES) | IC50 |
| --- | --- |
| Fc1ccc(Nc2ncnc3nc(Nc4ccc(N5CCOCC5)cc4)sc23)cc1Cl [Cpd 1, N^7-(3-chloro-4-fluoro-phenyl)-N^2-(4-morpholin-4-yl-phenyl)-thiazolo[4,5-d]pyrimidine-2,7-diamine] | 44 nM |
| Fc1ccc(Nc2ncnc3nc(Nc4cccc(CN5CCOCC5)c4)sc23)cc1Cl [Cpd 3, N^7-(3-chloro-4-fluoro-phenyl)-N^2-(3-morpholin-4-ylmethyl-phenyl)-thiazolo[4,5-d]pyrimidine-2,7-diamine] | 119 nM |
| Clc1cccc(Nc2ncnc3nc(Nc4cccc(CN5CCCCC5)c4)sc23)c1 [Cpd 8, N^7-(3-chloro-phenyl)-N^2-(3-piperidin-1-ylmethyl-phenyl)-thiazolo[4,5-d]pyrimidine-2,7-diamine] | 34.7 nM |
| COc1ccc(Nc2nc3ncnc(Nc4ccc(F)c(Cl)c4)c3s2)cc1 [Cpd 12, N^7-(3-chloro4-fluoro-phenyl)-N^2-(4-methoxy-phenyl)-thiazolo[4,5-d]pyrimidine-2,7-diamine] | 117 nM |
| Oc1ccc(Nc2nc3ncnc(Nc4ccc(F)c(Cl)c4)c3s2)cc1 [Cpd 13, 4-[7-(3-chloro4-fluoro-phenylamino)-thiazolo[4,5-d]pyrimidin-2-ylamino]-phenol] | 95 nM |
| Fc1ccc(Nc2ncnc3nc(Nc4ccc(OCCN5CCOCC5)cc4)sc23)cc1Cl [Cpd 14, N^7-(3-chloro-4-fluoro-phenyl)-N^2-[4-(2-morpholin-4-yl-ethoxy)-phenyl]-thiazolo[4,5-d]pyrimidine-2,7-diamine] | 59.4 nM |
| Fc1ccc(Nc2ncnc3nc(Nc4ccc(OCCN5CCCC5)cc4)sc23)cc1Cl [Cpd 15, N^7-(3-chloro-4-fluoro-phenyl)-N^2-[4-(2-pyrrolidin-1-yl-ethoxy)-phenyl]-thiazolo[4,5-d]pyrimidine-2,7-diamine] | 90.1 nM |
| Fc1ccc(Nc2ncnc3nc(Nc4ccc(OCCCN5CCN(c6ccc(Cl)cc6)CC5)cc4)sc23)cc1Cl [Cpd 16, N^7-(3-chloro-4-fluoro-phenyl)-N^2-(4-{3-[4-(4-chloro-phenyl)-piperazin-1-yl]-propoxy}-phenyl)-thiazolo[4,5-d]pyrimidine-2,7-diamine] | 165 nM |
| Fc1ccc(Nc2ncnc3nc(Nc4ccc(CN5CCSCC5)cc4)sc23)cc1Cl [Cpd 20, N7-(3-chloro-4-fluoro-phenyl)-N^2-(4-thiomorpholin4-ylmethyl-phenyl)-thiazolo[4,5-d]pyrimidine-2,7-diamine] | 49.3 nM |
| CCOC(=O)N1CCN(Cc2ccc(Nc3nc4ncnc(Nc5ccc(F)c(Cl)c5)c4s3)cc2)CC1 [Cpd 28, 4-{4-[7-(3-chloro-4-fluoro-phenylamino)-thiazolo[4,5-d]pyrimidin-2-ylamino]-benzyl}-piperazine-1-carboxylic acid ethyl ester] | 57 nM |
| c1ccc(Cn2ncc3ccc(Nc4ncnc5nc(Nc6ccc(CN7CCOCC7)cc6)sc45)cc32)cc1 [Cpd 36, N^7-(1-benzyl-1H-indazol-6-yl)-N^2-(4-morpholin-4-ylmethyl-phenyl)-thiazolo[4,5-d]pyrimidine-2,7-diamine] | 1020 nM |
| C#Cc1cccc(Nc2ncnc3nc(Nc4ccc(CN(CCOC)CCOC)cc4)sc23)c1 [Cpd 38, N^2-(4-{[bis-(2-methoxy-ethyl)-amino]-methyl}-phenyl)-N^7-(3-ethynyl-phenyl)-thiazolo[4,5-d]pyrimidine-2,7-diamine] | 28.5 nM |

More lines, in order of falling IC50, values ahead:

| IC50 | Structure (SMILES) |
| --- | --- |
| 27.8 nM | CCOC(=O)C1CCN(Cc2ccc(Nc3nc4ncnc(Nc5ccc(F)c(Cl)c5)c4s3)cc2)CC1 [Cpd 29, 1-{4-[7-(3-chloro-4-fluoro-phenylamino)-thiazolo[4,5-d]pyrimidin-2-ylamino]-benzyl}-piperidine-4-carboxylic acid ethyl ester] |
| 25.3 nM | C#Cc1cccc(Nc2ncnc3nc(Nc4ccc(S(=O)(=O)NCCCN(C)C)cc4)sc23)c1 [Cpd 37, N-(3-dimethylamino-propyl)-4-[7-(3-ethynyl-phenylamino)-thiazolo[4,5-d]pyrimidin-2-ylamino]-benzenesulfonamide] |
| 21.6 nM | CC1CC(C)CN(Cc2ccc(Nc3nc4ncnc(Nc5ccc(F)c(Cl)c5)c4s3)cc2)C1 (stereo not drawn) [Cpd 24, N^7-(3-chloro-4-fluoro-phenyl)-N^2-[4-(3,5-dimethyl-piperidin-1-ylmethyl)-phenyl]-thiazolo[4,5-d]pyrimidine-2,7-diamine] |
| 20 nM | COc1cc(Nc2nc3ncnc(Nc4ccc(F)c(Cl)c4)c3s2)ccc1CN1CCCCC1 [Cpd 6, N^7-(3-chloro-4-fluoro-phenyl)-N^2-(3-methoxy4-piperidin-1-ylmethyl-phenyl)-thiazolo[4,5-d]pyrimidine-2,7-diamine] |
| 18.4 nM | CN1CCN(Cc2ccc(Nc3nc4ncnc(Nc5ccc(F)c(Cl)c5)c4s3)cc2)CC1 [Cpd 5, N^7-(3-chloro-4-fluoro-phenyl)-N^2-[4-(4-methyl-piperazin-1-ylmethyl)-phenyl]-thiazolo[4,5-d]pyrimidine-2,7-diamine] |
| 18 nM | Clc1cccc(Nc2ncnc3nc(Nc4ccc(Cc5ccncc5)cc4)sc23)c1 [Cpd 9, N^7-(3-chloro-phenyl)-N^2-(4-pyridin-4-ylmethyl-phenyl)-thiazolo[4,5-d]pyrimidine-2,7-diamine] |
| 15 nM | CN(C)C(=O)c1ccc(Nc2nc3ncnc(Nc4ccc(F)c(Cl)c4)c3s2)cc1 [Cpd 27, 4-[7-(3-chloro-4-fluoro-phenylamino)-thiazolo[4,5-d]pyrimidin-2-ylamino]-N,N-dimethyl-benzamide] |
| 13.3 nM | CN(Cc1ccc(Nc2nc3ncnc(Nc4ccc(F)c(Cl)c4)c3s2)cc1)C1CCCCC1 [Cpd 21, N^7-(3-chloro-4-fluoro-phenyl)-N^2-{4-[(cyclohexyl-methyl-amino)-methyl]-phenyl}-thiazolo[4,5-d]pyrimidine-2,7-diamine] |
| 13 nM | CCc1nccn1Cc1ccc(Nc2nc3ncnc(Nc4cccc(Cl)c4)c3s2)cc1 [Cpd 7, N^7-(3-chloro-phenyl)-N^2-[4-(2-ethyl-imidazol-1-ylmethyl)-phenyl]-thiazolo[4,5-d]pyrimidine-2,7-diamine] |
| 12.3 nM | CN(C)Cc1ccc(Nc2nc3ncnc(Nc4ccc(F)c(Cl)c4)c3s2)cc1 [Cpd 10, N^7-(3-chloro-4-fluoro-phenyl)-N^2-(4-dimethylaminomethyl-phenyl)-thiazolo[4,5-d]pyrimidine-2,7-diamine] |
| 11.8 nM | COC[C@@H]1CCCN1Cc1ccc(Nc2nc3ncnc(Nc4ccc(F)c(Cl)c4)c3s2)cc1 [Cpd 26, N^7-(3-chloro-4-fluoro-phenyl)-N^2-[4-(2S)-(2-methoxymethyl-pyrrolidin-1-ylmethyl)-phenyl]-thiazolo[4,5-d]pyrimidine-2,7-diarmine] |
| 10 nM | O=S(=O)(NCCCN1CCOCC1)c1ccc(Nc2nc3ncnc(Nc4ccc(F)c(Cl)c4)c3s2)cc1 [Cpd 41, 4-[7-(3-chloro-4-fluoro-phenylamino)-thiazolo[4,5-d]pyrimidin-2-ylamino]-N-(3-morpholin-4-yl-propyl)-benzenesulfonamide] |
| 9.3 nM | NCC1CCN(Cc2ccc(Nc3nc4ncnc(Nc5ccc(F)c(Cl)c5)c4s3)cc2)CC1 [Cpd 22, N^2-[4-(4-aminomethyl-piperidin-1-ylmethyl)-phenyl]-N^7-(3-chloro-4-fluoro-phenyl)-thiazolo[4,5-d]pyrimidine-2,7-diamine] |
| 9 nM | O=S(=O)(NCCN1CCOCC1)c1ccc(Nc2nc3ncnc(Nc4ccc(F)c(Cl)c4)c3s2)cc1 [Cpd 40, 4-[7-(3-chloro-4-fluoro-phenylamino)-thiazolo[4,5-d]pyrimidin-2-ylamino]-N-(2-morpholin-4-yl-ethyl)-benzenesulfonamide] |
| 6.3 nM | Fc1ccc(Nc2ncnc3nc(Nc4ccc(Cn5ccnc5)cc4)sc23)cc1Cl [Cpd 23, N^7-(3-chloro-4-fluoro-phenyl)-N^2-(4-imidazol-1-ylmethyl-phenyl)-thiazolo[4,5-d]pyrimidine-2,7-diamine] |
| 6 nM | Fc1ccc(Nc2ncnc3nc(Nc4ccc(CN5CCCCCC5)cc4)sc23)cc1Cl [Cpd 19, N^2-(4-azepan-1-ylmethyl-phenyl)-N^7-(3-chloro-4-fluoro-phenyl)-thiazolo[4,5-d]pyrimidine-2,7-diamine] |
| 5.5 nM | CCc1nccn1Cc1ccc(Nc2nc3ncnc(Nc4ccc(F)c(Cl)c4)c3s2)cc1 [Cpd 30, N^7-(3-chloro-4-fluoro-phenyl)-N^2-[4-(2-ethyl-imidazol-1-ylmethyl)-phenyl]-thiazolo[4,5-d]pyrimidine-2,7-diamine] |
| 2.5 nM | O=S(=O)(NCCO)c1ccc(Nc2nc3ncnc(Nc4ccc(F)c(Cl)c4)c3s2)cc1 [Cpd 39, 4-[7-(3-chloro-4-fluoro-phenylamino)-thiazolo[4,5-d]pyrimidin-2-ylamino]-N-(2-hydroxy-ethyl)-benzenesulfonamide] |
